Source: patent US5162571A, “Phenol derivatives, their production and use” (Takeda Chemical Industries, Ltd., priority 1987, dated 1992)

Tests used:
[1] = test system: lipid peroxides production in rat brain homogenates; assay: Inhibitory action on lipid peroxides production in rat brain homogenates; format: biochemical; conditions: 10^-5 M
Protocol: Inhibitory action on lipid peroxides production in rat brain homogenates
Method: The male SD rat brain tissue was used as 5% homogenate in phosphate-buffered solution. After incubation of the homogenate for 1 hour at 37° C., the amount of lipid peroxides produced was determined by the thiobarbituric acid method according to the description of Ohkawa et al. (Analytical Biochemistry, 95: 551, 1979)
Test compounds were used as a solution of dimethylsulfoxide. The inhibitory action on lipid peroxide production was expressed as a % inhibition as compared with the amount of production in the vehicle group.

[2] = Extension of bleeding time; format: in vivo, rat; conditions: one hour before
Protocol: Extension of bleeding time
Method: Test compounds were administered orally to rats one hour before the experiments. The rats were anesthetized and the tail was cut at 1.5 mm from the tip. Immediately, the tail was hung down into a physiological saline warmed at 37° C. The time required from initiation to stop of bleeding (bleeding time) was measured.

[3] = target: T1, Thromboxane A2 (TXA2) receptor (Oryctolagus cuniculus, UniProt Q6WQI8); assay: Thromboxane A2 (TXA2) receptor antagonism: inhibitory effect on contraction of rabbit aorta by TXA2-mimics; format: cell-based; conditions: U-44069 (10^-7 M)-induced contraction
T1 construct: contraction by TXA2 mimics U-44069 or U-46619
T1 sequence (Q6WQI8 1-233): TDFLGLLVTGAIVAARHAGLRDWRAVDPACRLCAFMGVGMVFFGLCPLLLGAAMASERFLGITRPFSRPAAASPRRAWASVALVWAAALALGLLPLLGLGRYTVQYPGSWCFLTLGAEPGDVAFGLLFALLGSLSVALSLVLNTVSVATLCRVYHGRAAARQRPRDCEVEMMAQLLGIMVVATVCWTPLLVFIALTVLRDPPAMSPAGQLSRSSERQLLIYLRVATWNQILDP
Protocol: Thromboxane A2 (TXA2) receptor antagonism
Inhibitory effect on contraction of rabbit aorta by thromboxan A2 (TXA2)-mimics
Method: A spiral strip of the rabbit aorta (2-3 mm wide, about 3 cm long) was suspended in Krebs-Henseleit solution under the load of 2 g. The Krebs-Henseleit solution was saturated with a mixed gas of 95%O2 -5%CO2 and warmed at 37° C. Inhibition of the contraction of the vascular strip caused by a TXA2 mimic substance U-44069^1) (10^-7 M) or U-46619^2) (3×10 ^-8 M), by pretreatment with Compound No. 13 30 minutes before was studied.
1) U-44069: (5Z, 9α, 11α, 13E, 15S)-15-hydroxy-9,11-(epoxymethano)-prosta-5,13-dienoic acid (manufacturedby The Upjohn Company in U.S.A.)
2) U-46619: (5Z, 9α, 11α, […], 15S)-15-hydroxy-11,9-(epoxymethano)-prosta-5,13-dienoic acid (manufacturedby Cayman Chemical Company)
In Table 5, "*" represents addition of U-46619.

Cc1c(C)c(Br)c(C)c(C(CCCCCC(=O)O)c2ccc(F)cc2)c1O (stereo not drawn) [Compound 12, 7-(5-bromo-2-hydroxy-3,4,6-trimethylphenyl)-7-(4-fluorophenyl)heptanoic acid]
Inhibition (%) [1]: 100% | Bleeding time ([2]; 10 mg/kg oral, control 173 ± 23, * p < 0.05): 272 ± 52 s | Bleeding time ([2]; 30 mg/kg oral, control 164 ± 27, ** p < 0.01): 258 ± 14 s | inhibition at 10 µM ([3]; 10^-5 M): 100% | inhibition at 1 µM ([3]; 10^-6 M): 79% | inhibition at 0.1 µM ([3]; 10^-7 M): 12%
